In patent US20210130291A1, “METHODS FOR TREATING DIABETES USING VDAC1 INHIBITORS” (THE NATIONAL INSTITUTE FOR BIOTECHNOLOGY IN THE NEGEV LTD., priority 2016, published 2021):
“Also recorded” adds a separate entry of the source. One block for each molecule: values may come before it.

Legend:
[1] = system: VDAC1 expression in INS-1 cells; experiment: VDAC1 expression in INS-1 cells cultured at 5 or 20 mM glucose; format: cell-based, rat
Procedure: INS-1 832/13 cells (kindly donated by Dr. C. B. Newgaard, Duke University, USA) were cultured in RPMI-1640 containing 11.1 mM D-glucose and supplemented with 10% fetal bovine serum, 100 U/ml penicillin (Gibco), 100 µg/ml streptomycin (Gibco), 10 mM HEPES, 2 mM glutamine, 1 mM sodium pyruvate, and 50 µM β-mercaptoethanol (Sigma), at 37° C. in a humidified atmosphere containing 95% air and 5% CO2. For VDAC1 over-expression by VDAC1 plasmid (1 μg/ml) and VDAC2 down-regulation by and siRNA, INS1 832/13 cells were cultured to 60% confluence. To study the long-term effects (24-72 h) of high glucose (20 mM) (glucotoxicity) compared to basal glucose (5 mM), INS-1 832/13 cells were cultured with RPMI 1640 complete media (Ahmed, M., et al., 2010. Islets 2, 283-292) in the presence or absence of indicated agents and thereafter VDAC1 expression, cell viability and function was measured.
Total RNA from handpicked mouse islets, human donor islets (Diabetic and non-diabetic) or INS1 832/13 cells were extracted using RNAeasy (Qiagen, Hilden, Germany). RNA ([…]) was used for cDNA synthesis with SuperScript (Invitrogen, Carlsbad, Calif., USA). Concentration and purity of total RNA was measured with a NanoDrop ND-1000 spectrophotometer (A260/A280>1.9 and A260/A230>1.4) (NanoDrop Technologies, Wilmington, Del.) and RNA Quality Indicator (RQI) higher than 8.0 (Experion Automated Electrophoresis, Bio-Rad, USA) was considered to be high-quality total RNA preparations. A 10 μl of reaction mixture with 20 ng cDNA, 5 μl TaqMan mastermix (Applied Biosystems, Foster City, Calif., USA), and 100 nM TagMan gene expression assay were run in a 7900HT Fast Real-Time System (Applied Biosystems). The qPCR was carried out as follows: 50° C. for 2 minutes, 95° C. for 10 minutes, 40 cycles of 95° C. for 15 seconds, and 60° C. for 1 minute. The amount of mRNA was calculated relative to the amount of housekeeping genes (GAPDH, PPIA or HPRT) mRNA in the same sample by the formula X0/R0=2CtR-CtX, where X0 is the original amount of mRNA for the gene of interest, R0 is the original amount of HPRT mRNA, CtR the Ct value for HPRT, and CtX the Ct value for the gene of interest. Primer sequences are provided upon request.

islets from T2D donors = experiment: ATP content and GSIS in islets from T2D donors, acute addition of VDAC1 inhibitors; format: cell-based, human
Excerpt: Human pancreatic islets were obtained through collaboration between Human Tissue Laboratory within Lund University Diabetes Centre (LUDC) and the Nordic Network for Clinical Islet Transplantation (Prof. Olle Korsgren, Uppsala University, Sweden). Donors were grouped according to HbA1c i.e. less than 6% (ND), between 6% and 6.5% (IGT), higher than 6.5% or history of diabetes (T2D). The human islets (70-90% purity) had been cultured in CMRL 1066 (ICN Biomedicals, Costa Mesa, Calif.) supplemented with 10 mM HEPES, 2 mM L-glutamine, […] gentamicin, […] fungizone (Gibco, BRL, Gaithersburg, Md.), 20 μg/ml ciprofloxacin (Bayer Healthcare, Leverkusen, Germany) and 10 mM nicotinamide at 37° C. (5% CO2) for 1 to 5 days prior to the arrival in the laboratory. The islets were then hand-picked under stereomicroscope prior to use. All procedures using human islets were approved by the ethical committees at Uppsala and Lund Universities, Sweden.
(§1) Human pancreatic islets were collected under a stereomicroscope at room temperature and cultured at 5.5 or 20 mM glucose in the absence or presence of test agents for 72 h. Thereafter the islets were washed and preincubated for 30 min at 37° C. in Krebs Ringer bicarbonate buffer, pH 7.4, supplemented with N-2 hydroxyethylpiperazine-N′-2-ethanesulfonic acid (10 mM), 0.1% bovine serum albumin, and 1 mM glucose. Each incubation vial contained 12 islets in 1.0 ml KRB buffer solution and treated with 95% O2 and 5% CO2 to obtain constant pH and oxygenation. After preincubation, the buffer was changed to a medium containing either 1 mM or 16.7 mM glucose. The islets were then incubated for 1 h at 37° C. in a metabolic shaker (30 cycles per min). Immediately after incubation an aliquot of the medium was removed for analysis of insulin and the islets were incubated in acid-ethanol for insulin content determination by radioimmunoassay.
(§2) ATP release from isolated mouse or human islets or from INS-1 cells after transfection with mitochondrial targeted VDAC1 (mtVDAC1) or plasma membrane targeted VDAC1 (plVDAC1) plasmids was determined using a luminometric assay kit according to manufacturer's recommendation (Biovision). After incubation of islets (50/vial) or INS-1 cells for 60 min, an aliquot of the media was removed for subsequent measurements of released ATP. Then the islets or INS-1 cells were washed 3 times and the lysates were used for measurements of ATP and protein contents followed the protocol provided by the vendor.

islets of C57/BL mice = experiment: ATP content and GSIS in islets of control C57/BL mice; format: cell-based, mouse; settings: VDAC1 antibody 10 nM
Procedure: 5 weeks old db/db mice and control (C57/bl) (Janvier Laboratory, France), weighing 18-25 g, were used throughout the experiments. They were given a standard pellet diet (B&K) and tap water ad libitum. The experimental procedures were approved by the Ethics Committee for Animal Research at Lund University. Isolation of pancreatic islets was performed by retrograde injection of a collagenase solution via the bile-pancreatic duct and islets were then collected under a stereomicroscope at room temperature.
as §1, §2

[2] = biological target: T1, plasma membrane targeted VDAC1 (plVDAC1) (Mus musculus, UniProt Q60932); experiment: ATP release and ATP content of INS-1 cells transfected with plasma membrane targeted VDAC1; format: cell-based; settings: for ATP release: racemate and enantiomers (FIG. 9a)
T1 construct: expressed in transfected cells; host or cells: INS-1 832/13 cells (rat insulinoma), transient transfection; plasmid a gift from Dr. R. Buettner
Procedure: as §2
INS-1 cells were transiently transfected with a plasmid encoding plasma membrane targeted VDAC1 (pVDAC1) as described in the Material and Method section herein above and in Example 3 (see also Buettner et al 2000. PNAS 97:3201-3206). After transfection (24-32 h and 2-4 h recovery in normal culture medium, RPMI 1640 with complete supplement) the INS-1 cells were washed followed by preincubation in SAB-buffer (See Material and Method above) containing 2.8 mM glucose. The final 1 h incubation was performed in SAB-buffer containing 1 mM glucose and the VDAC1 inhibitory compounds to be tested. At the end, the cells were lysed using lysis buffer, sonicated and the lysate as well as the incubation medium were analyzed for ATP content using a commercially available kit (Biovision, K354-100). Cellular protein content was analyzed by Pierce™ BCA protein assay kit (Thermo Scientific, USA).

[3] = plVDAC1-transfected INS-1 cells, 1 h at 1 mM glucose

T1 sequence (Q60932 whole entry): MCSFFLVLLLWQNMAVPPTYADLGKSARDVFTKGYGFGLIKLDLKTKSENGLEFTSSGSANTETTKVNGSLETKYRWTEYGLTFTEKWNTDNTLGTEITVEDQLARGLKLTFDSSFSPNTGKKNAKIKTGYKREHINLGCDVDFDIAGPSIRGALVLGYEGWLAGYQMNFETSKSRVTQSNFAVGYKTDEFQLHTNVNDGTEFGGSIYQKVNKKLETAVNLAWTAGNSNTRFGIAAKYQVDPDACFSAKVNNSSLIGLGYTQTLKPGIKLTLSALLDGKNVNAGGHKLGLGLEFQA

ATP release [2, 3]: efficiently inhibit ATP release
cellular ATP content ([2]; plVDAC1-transfected INS-1 cells, 1 h at 1 mM glucose, racemate and enantiomers (FIG. 9b)): increase cellular ATP content
Structure (SMILES): O=C(CC(CO)N1CCN(c2ccc(OC(F)(F)F)cc2)CC1)Nc1ccc(Cl)cc1 (centres unmarked) [VBIT-4-1]

ATP release [2, 3]: efficiently inhibit ATP release
Structure (SMILES): O=C(CC(CO)N1CCN(c2ccc(OC(F)(F)F)cc2)CC1)Nc1ccc(Cl)cc1 (centres unmarked) [VBIT-4-2]

The remaining lines, values behind:

Structure (SMILES): O=CC[C@@H](O)[C@H](O)[C@H](O)CO [2-deoxyglucose, reference compound]
VDAC1 expression ([1]; INS-1 cells, 2-deoxyglucose, data not shown): increased VDAC1 expression

Structure (SMILES): O=C1CC(N2CCC(Nc3ccc(OC(F)(F)F)cc3)CC2)C(=O)N1c1ccc(Cl)cc1 (centres unmarked) [AKOS, 1-(4-Chloro-phenyl)-3-[4-(4-trifluoromethoxy-phenylamino)-piperidin-1-yl]-pyrrolidine-2,5-dione]
GSIS (islets from T2D donors; T2D islets, acute addition 1 h (FIG. 6f)): increased in parallel with the improved ATP generation
islet ATP content (islets from T2D donors; islets from 5 T2D donors and one IGT donor, 1 h, at 1 and 16.7 mM glucose (FIG. 6e)): increased islet ATP content
GSIS (islets of C57/BL mice; others 20 μM (FIG. 7e)): do not affect
ATP content (islets of C57/BL mice; others 20 μM (FIG. 7d)): do not affect
ATP release (loss of cellular ATP) ([2]; plVDAC1-transfected INS-1 cells, 1 h at 1 mM glucose, VDAC1-ab 10 nM, metformin, AKOS, VBIT-4 20 μM each (FIG. 4c)): prevented; also recorded: rapidly inhibited
glucose evoked VDAC1 upregulation (total VDAC1 expression) ([1]; INS-1 cells cultured 72 h at 20 mM glucose, VDAC1ab 10 nM, metformin, AKOS, VBIT-4 20 μM each (FIG. 4l, 4m)): abrogated the glucose evoked VDAC1 upregulation

Structure (SMILES): CC1(C)C(=O)N([C@H]2CCc3c(O)cccc32)c2nc(Nc3cccc(CN4CCCC4)c3)ncc21 [MRT199665, reference compound]
effect of AMPK inhibitor on metformin-inhibited ATP release ([2]; plVDAC1 transfected INS-1 cells, MRT199665 5 μM with metformin (FIG. 4i)): neither attenuated
